Series [1] relates to M. mycetomatis. Kind of series: In vitro susceptibility, averages over M. mycetomatis isolates (average metabolic activity at 2 µM, mean MIC). The series is classed as cell-based. The settings on record: Madurella mycetomatis, 96 h, 4 days at 37°C, CellTiter-Glo, average of 3 isolates, 20% or below = inhibition.
The test system of series [2] is M. mycetomatis strain mm55. The experiment in a line: IC50 and MIC determination, CellTiter-Glo, strain mm55. The series is classed as cell-based, Madurella mycetomatis. The settings on record: Madurella mycetomatis; for IC50: concentration inhibiting 50% of fungal hyphae growth; for MIC: concentration with complete growth inhibition. On the technique in general: In ATP-based viability assays light output follows the ATP content of the culture.

The test system of series [3] is M. mycetomatis strain P1. The experiment in a line: IC50 and MIC determination, CellTiter-Glo, strain P1. It is filed as cell-based, Madurella mycetomatis. The settings on record: Madurella mycetomatis, P1.
Series [4] has as its system M. mycetomatis strain I1. The experiment in a line: IC50 and MIC determination, CellTiter-Glo, strain I1. The settings on record: Madurella mycetomatis, I1. It is filed as cell-based, Madurella mycetomatis.
In series [5] the test system is healthy uninfected G. mellonella larvae. The settings on record: 20 µL of 20 µM injected; for Toxicity in G. mellonella larvae at 20 µM: 10 day observation, toxic if more than 20% of larvae died; for larval survival: 10 days, uninfected larvae. How it is done: (§1) For in vivo experiments, sixth-week instar G. mellonella larvae were purchased from Blue-Lagoon, Maassluis, The Netherlands. The larvae were raised and kept in the dark at room temperature. Larvae without any discoloration and weighing around 500 mg were selected for experiments.
To determine the toxicity, 15 healthy uninfected larvae were injected with 20 µL of 20 µM compound as previously described.[16] […] As a control, a separate group of larvae were injected with 20 µL of PBS. Larvae were housed in Petri dishes with Whatman paper at 37°C in the dark. Survival was monitored for 10 days.

The test system of series [6] is M. mycetomatis MM55-infected G. mellonella larvae. Kind of series: Therapeutic efficacy in M. mycetomatis-infected G. mellonella larvae (survival, log-rank). The series is classed as in vivo, Galleria mellonella. The settings on record: 20 µL of 20 µM at 4, 28 and 52 h post infection; 10 days. How it is done: as §1
The wet weight was determined and 10 mL of PBS per gram of mycelia was added. The suspension was then sonicated for 2 min to achieve a particle size of 10 µm. The fungal suspension (4 mg/40 µL) was injected into the last left pro-leg of a healthy G. mellonella larva with an insulin 29G U-100 needle to reach a final inoculum of 4 mg/larva. Larvae were placed in Petri dishes containing Whatman paper in a 37°C incubator.
A control group was also included in which M. mycetomatis-infected larvae were treated with PBS or with 1 mg/kg amphotericin B (Fungizone, Bristol Myers Squibb, Utrecht, The Netherlands). […] The treatment was repeated at 28 h post infection and 52 h post infection via different prolegs. The infection was monitored for 10 days.
To compare the survival rates between PBS treatment control and the different experimental groups a log-rank test was performed. All data were processed and performed in GraphPad Prism 10.

For series [7], the system named is vancomycin-resistant Staphylococcus aureus strains. The settings on record: cited from earlier work.
A further series has as its system Rhodnius prolixus. The arrangement: method as in PMID 30233391. The settings on record: insect vector Rhodnius prolixus; cited from earlier work.
For series [8], the system named is M. mycetomatis. Details: method as in PMID 35398930, PMID 15793113, PMID 36005544, PMID 34181477, PMID 22964246. The settings on record: against M. mycetomatis; cited from earlier work.
Series [9] deals with M. mycetomatis-infected G. mellonella larvae. The settings on record: M. mycetomatis-infected G. mellonella larvae; cited from earlier work.
Another series concerns eumycetoma. The settings on record: cited from earlier work.
Series [10] relates to M. mycetomatis mouse model. Details: method as in PMID 26150103. The settings on record: cited from earlier work.
For series [11], the system named is M. mycetomatis strain I1. The experiment in a line: microbe, parasite or virus in culture. The settings on record: Madurella mycetomatis, I1, 96 h. The arrangement: species or system Madurella mycetomatis hyphae. How it is done:
(§2) The Oncode Drug Repurposing library was based on the drug repurposing library from the Drug Repurposing Hub of the Broad Institute and recreated by the Oncode institute.[13] The library contained 5631 drugs.[18] A copy of this library was plated out on 384-well plates with lids (cat no. 655180; Greiner Bio-One, Alphen aan den Rijn, The Netherlands) by the Leiden University Medical Center. Each well of the 384-well plates contained 0.6 µL of a 200 µM stock concentration of compound, resulting in a final concentration of 2 µM when the fungus was added. From the previous libraries we screened, we noted that there are several compounds able to inhibit M. mycetomatis at this concentration in vitro. Furthermore, this concentration could also be reached in the G. mellonella larvae.[8],[11] The prepared 384-well plates were transferred on dry ice to the Erasmus MC and stored at −80°C until they were screened. We created a second library from the original library, containing only those 29 compounds that were active in the first screen. […] To determine the in vitro susceptibility of M. mycetomatis to the compounds, a hyphal inoculum was prepared as described elsewhere.[19] This M. mycetomatis hyphal suspension (60 µL) was added to each of the wells in the 384-well plate, leading to a final testing concentration of 2 µM per compound. Each plate also contained a growth control (60 µL of M. mycetomatis hyphal suspension, plus 0.6 µL of DMSO) and a negative control (60 µL of culture medium, plus 0.6 µL of DMSO). Plates were then incubated for 4 days at 37°C, after which 30 µL of CellTiter-Glo 3D Cell Viability reagent was added to every well.[19] After 25 min of incubation at room temperature, the luminescence was measured with a CytoFluor Series 4000 luminometer (PerSeptive Biosystems, Framingham, MA, USA). To determine the metabolic activity, the following formula was used: For each of these 29 active compounds, the IC50 and MIC were determined for M. mycetomatis strains MM55, P1 and I1 (Table 1 and Table S1).

The subject of series [12] is M. mycetomatis strain P1. The experiment in a line: microbe, parasite or virus in culture. Details: species or system Madurella mycetomatis hyphae. The settings on record: Madurella mycetomatis, P1, 96 h. How it is done: as §2
Series [13] deals with M. mycetomatis strain mm55. The experiment in a line: microbe, parasite or virus in culture. The settings on record: Madurella mycetomatis, MM55, 96 h. Details: species or system Madurella mycetomatis hyphae. On the procedure: as §2
The subject of series [14] is itraconazole-susceptible and itraconazole-resistant Aspergillus fumigatus. Details: method as in PMID 37037064. The settings on record: cited from earlier work.
The test system of a further series is thioredoxin reductase. Details: method as in PMID 39816643. The settings on record: cited from earlier work.
Series [15] has as its system primary human neutrophils exposed to C. albicans. Details: method as in PMID 19609651. The settings on record: cited from earlier work.
Series [16] has as its system M. mycetomatis. Details: method as in PMID 34209118. The settings on record: in vitro; cited from earlier work.

Values after ≈ are worked out from the molar mass of the structure shown. “Also recorded” adds a separate entry of the source. Where a name gives a salt, the structure may show the parent alone.

The IC50 is the midpoint of a concentration-inhibition curve. A lower IC50 goes with greater potency in that assay. In general, MIC50 refers to an inhibitory concentration at the 50% level, which refers to growth in some studies and to a panel of isolates in others.

`O=C(Nc1cc(C(F)(F)F)cc(C(F)(F)F)c1)c1cc(Cl)ccc1O` [IKK2 inhibitor V (IMD-0354), IMD-0354]: in the series with M. mycetomatis [1], the activity at 2 µM amounted to 2.3%. Moreover, in [2], the IC50 was 1.76 µM and the MIC is 2 µM (≈ 0.767 µg/mL). In addition, in the series on M. mycetomatis strain P1 [3], the IC50 was 0.17 µM and the MIC was 0.25 µM (≈ 0.0959 µg/mL). In the series with M. mycetomatis strain I1 [4], inhibition was half-maximal at 1.68 µM (IC50) and the MIC was determined as 2 µM (≈ 0.767 µg/mL). In series [5], the “Toxicity in G. mellonella larvae at 20 µM” value was “not toxic” and the larval survival entry is listed as “above 80%”. For the same compound, the “Survival of M. mycetomatis-infected larvae versus PBS” value in series [6] is listed as “prolonged the survival; also recorded: prolonged larval survival”. Besides, the MIC in series [7] (Gram-positive vancomycin-resistant Staphylococcus aureus strains) is 0.06 µg/mL (≈ 0.156 µM). Further, the biofilm formation entry in [7] (vancomycin-resistant staphylococci) is recorded as “able to inhibit biofilm formation”. In addition, in the series on Rhodnius prolixus, the “expression of antimicrobial peptides” value is given as “decreased” and the “mortality after Trypanosoma cruzi infection” value is “reduced mortality”.
For the compound `CCC(C)n1ncn(-c2ccc(N3CCN(c4ccc(OCC5COC(Cn6cncn6)(c6ccc(Cl)cc6Cl)O5)cc4)CC3)cc2)c1=O` (stereo not drawn) [Itraconazole hydrochloride], in the series with M. mycetomatis [1], the activity at 2 µM is 6.1%. For the same compound, the results for the IC50 (in series [2]; in the series with M. mycetomatis strain P1 [3]; in the series with M. mycetomatis strain I1 [4]) were 1.58 µM, 0.84 µM and 0.78 µM, respectively. In addition, the MIC stood at 2 µM in series [2], 2 µM in the series on M. mycetomatis strain P1 [3] and 1 µM against M. mycetomatis strain I1 [4]. Besides, the MIC50 in the series with M. mycetomatis [8] is 0.06 µg/mL. Further, in series [9], the larval survival entry is “No prolonged larval survival”. Further, the “lesion size or β-glucan levels” value in the series on eumycetoma (400 mg/day, first 6 months of treatment) is on record as “no reduction”. Besides, the cure rate with eumycetoma (itraconazole combined with surgery, clinical trial setting) was 80%. Also, the “activity in M. mycetomatis mouse model” value in series [10] is reported as “lack of activity”.
With `Cc1c(N)nc([C@H](CC(N)=O)NC[C@H](N)C(N)=O)nc1C(=O)N[C@H](C(=O)N[C@H](C)[C@@H](O)[C@H](C)C(=O)N[C@H](C(=O)NCCc1nc(-c2nc(C(=O)NCCCNCCCCN)cs2)cs1)[C@@H](C)O)[C@@H](O[C@@H]1O[C@@H](CO)[C@@H](O)[C@H](O)[C@@H]1O[C@@H]1O[C@H](CO)[C@@H](O)[C@H](OC(N)=O)[C@@H]1O)c1cnc[nH]1` [ONC0002990, bleomycetin], the figures for the IC50 (in the series on M. mycetomatis strain I1 [11]; in the series with M. mycetomatis strain P1 [12]; in series [13]) were 0.2 µM, less than 0.03 µM and 0.21 µM, respectively. In addition, the MIC is 0.5 µM (≈ 0.72 µg/mL) in the series with M. mycetomatis strain I1 [11], less than 0.03 µM in the series on M. mycetomatis strain P1 [12] and 0.5 µM (≈ 0.72 µg/mL) in [13].
As for `CC(=O)OC[C@H]1O[C@@H]([S-])[C@H](OC(C)=O)[C@@H](OC(C)=O)[C@@H]1OC(C)=O.CCP(CC)CC.[Au+]` [auranofin], the Aspergillus biofilm formation result in series [14] is “inhibitory activity”. For the same compound, the antifungal activity result in [14] (itraconazole-susceptible and itraconazole-resistant A. fumigatus) is reported as “potent antifungal activity”. Also, the thioredoxin reductase inhibition entry in the series on thioredoxin reductase is “able to inhibit thioredoxin reductase”.
Consider `Cc1ccc(S(=O)(=O)/C=C/C#N)cc1` [bay117082], for which the “chemotaxis, phagocytosis and killing activity of neutrophils” value in [15] is reported as “able to reduce”.
Turning to `CC(C)(C)c1ccc(S(=O)(=O)/C=C/C#N)cc1` [bay117085], in the series on M. mycetomatis [1], the activity at 2 µM was determined as 4%. Besides, in series [2], the IC50 stood at 1.51 µM and the MIC was 2 µM (≈ 0.499 µg/mL). Besides, in the series with M. mycetomatis strain P1 [3], the IC50 was found to be 0.85 µM and the MIC worked out at 2 µM (≈ 0.499 µg/mL). In the series with M. mycetomatis strain I1 [4], this compound had an IC50 of 0.72 µM and an MIC of 1 µM (≈ 0.249 µg/mL). Besides, in series [5], the “Toxicity in G. mellonella larvae at 20 µM” value is listed as “not toxic” and the larval survival result is reported as “above 80%”. The “Survival of M. mycetomatis-infected larvae versus PBS” value in series [6] is “prolonged the survival; also recorded: prolonged larval survival”. Besides, the thioredoxin reductase inhibition result in the series on thioredoxin reductase is “able to inhibit thioredoxin reductase”.
With `O=C(Nc1ccc([N+](=O)[O-])cc1Cl)c1cc(Cl)ccc1O` [niclosamide], the “activity against M. mycetomatis” value with M. mycetomatis [16] is given as “active”.

These data come from PMC12670160, “A drug-repurposing screen of FDA- and EMA-approved drugs identifies two NF-κB inhibitors active against eumycetoma” (Journal of Antimicrobial Chemotherapy, 2025).
